Tests used:
[1] = molecular target: T1, Bovine Carbonic Anhydrase-II (Bos taurus, UniProt P00921); experiment: Kinetics studies (Lineweaver-Burk, Dixon plots) against Bovine Carbonic Anhydrase-II; assay type: biochemical; parameters: Vmax app: unit not given here
T1 construct: pure bovine erythrocyte CA-II; from tissue; host or cells: bovine erythrocytes
Protocol: FIG. 2B depicts the double reciprocal plot for Ki determination which is between Slope Vs Inhibitor Conc.
FIG. 3B depicts the double reciprocal plot for Ki determination which is between Slope Vs Inhibitor Conc.
Kinetics studies were performed for each analogue. […] The Grafit version 7.0 was used for the construction of Lineveawer-Burk plots and their secondary replots.

MTT cytotoxicity assay = assay type: cell-based; details: mouse, 3T3 mouse fibroblast cells, 3T3 cells, 50% growth inhibition, read-out: Cytotoxicity IC50 ± SD
Protocol: Cytotoxicity studies were performed using a colorimetric assay that measures the reduction of 3-(4,5-dimethythiazol-2-yl)-2,5-diphenyl tetrazolium bromide (MTT) (yellow in color), by mitochondrial enzyme (i.e. succinate dehydrogenase). The MTT enters into the mitochondria of cell, where it is reduced to an insoluble formazan salt (purple in color). The extent of MTT reduction to formazan within cells was measured spectrophotometrically. As reduction of MTT can only occur in metabolically active cells the level of activity is actually a measure of the viability of the cells^22.
Mouse fibroblast cell line 3T3 was cultured in DMEM, supplemented with 5% of FBS, 100 IU/ml of penicillin and 100 μg/ml of streptomycin, and kept at 37° C. in 5% CO2 incubator. For the preparation of cell culture 100 μL/well of cell solution (5×10^4 cells/ml) was added into 96-well plate. The plate was incubated for overnight, and fresh medium was added after the removal of old medium. The test compounds were also added in different concentrations into the plate and plate was again incubated for 48 hrs. After the completion of this incubation period 200 μL MTT (0.5 mg/ml) was added and plate was again incubated for 4 hrs, after this final incubation 100 μL of DMSO was added to each well. The level of MTT reduction to formazan was evaluated by change in absorbance at 540 nm using a micro plate reader (Spectra Max plus, Molecular Devices, CA, USA).

[2] = molecular target: T2, Bovine Carbonic Anhydrase-II (bovine erythrocyte CA-II) (Bos taurus, UniProt P00921); experiment: Bovine carbonic anhydrase-II inhibition, 4-nitrophenyl acetate spectrophotometric assay; assay type: biochemical; details: 4-nitrophenyl acetate 0.7 mM, pH 7.4, 15 min preincubation; read-out: IC50 ± S.E.M. BCA-II
T2 construct: pure bovine erythrocyte CA-II; from tissue; host or cells: bovine erythrocytes
Protocol: (§1) Nineteen different analogues of benzamide sulfonamides were evaluated for carbonic anhydrase-II inhibition. The rate of catalyzed reaction was monitored by the amount of product formation by using the chromogenic substrate i.e., 4-nitrophenyl acetate.
4-Nitrophenyl acetate (4-NPA) is a colorless compound which is used as a substrate in carbonic anhydrase inhibition assay. The reaction involves the hydrolysis of 4-nitrophenyl acetate into […] and 4-nitrophenol a yellow colored compound. During this experiment, HEPES-tris buffer was used at 20 mM concentration with pH 7.4.
After 15 min of incubation of the enzyme with the test compound, the substrate was added to initiate the reaction. The reaction was carried out in triplicate with different concentrations of test compounds was used.
In this assay protocol, the reaction was performed by using a 96-well flat bottom plate.
The amount of product formation was measured at 400 nm for 30 min with 1 min interval, multiplate reader SPECTRA max 340 (Molecular Devices, CA, USA) was used to monitor the product formation.
The enzyme inhibitory activities were calculated using the following formula:
% Inhibition=100−(O.D of test/O.D of control)*100
(§2) Where test is the enzyme activity with sample and control is the enzyme activity without sample. The IC50 of the compounds were calculated by using EZ-Fit Enzyme Kinetic Program (Perrella Scientific Inc. Amhrest, U.S.A).

[3] = molecular target: T3, Human Carbonic Anhydrase-II (human erythrocyte CA-II) (Homo sapiens, UniProt P00918); experiment: HCA-II inhibitory activity, 4-nitrophenyl acetate spectrophotometric assay; assay type: biochemical; details: 4-nitrophenyl acetate 0.7 mM, pH 7.4, 25° C., 15 min preincubation; read-out: IC50 ± S.E.M. HCA-II
T3 construct: purified human erythrocyte CA-II; from tissue; host or cells: human erythrocytes
Protocol: as §1
Hydrolysis of 4-NPA (a colorless compound): yields 4-nitrophenol and […]. The reaction is monitored by quantifying the formation of 4-nitrophenol, a yellow colored compound.
In successive experiments, HEPES-tris was used as a buffer for the reaction at final concentration of 20 mM, with 7.4 pH. The total reaction volume of 200 μL includes, 140 μL of the HEPES-tris, 20 μL of test compound diluted in DMSO (20 μL of DMSO as a control sample), 20 μL of purified human erythrocyte CA-II (0.1 mg/mL) prepared in deionized water and 20 μL of a solution of 4-NPA (0.7 mM diluted in ethanol). Adhesion of enzyme with the plastic-ware was avoided by the addition of bovine serum albumin (1 mg/mL).
The 20 μL of test compound was incubated with enzyme for a period of 15 min. The rate of product formation was monitored with the addition of 20 μL substrate prepared in ethanol at a final concentration of 0.7 mM 4-nitrophenyl acetate at 25° C. for a period of 30 min with regular interval of 1 min.
The assay was performed in triplicates by using 96-well flat bottom plate.
The enzyme inhibitory activities were calculated using the following formula: […]
as §2

T1 sequence (P00921 whole entry): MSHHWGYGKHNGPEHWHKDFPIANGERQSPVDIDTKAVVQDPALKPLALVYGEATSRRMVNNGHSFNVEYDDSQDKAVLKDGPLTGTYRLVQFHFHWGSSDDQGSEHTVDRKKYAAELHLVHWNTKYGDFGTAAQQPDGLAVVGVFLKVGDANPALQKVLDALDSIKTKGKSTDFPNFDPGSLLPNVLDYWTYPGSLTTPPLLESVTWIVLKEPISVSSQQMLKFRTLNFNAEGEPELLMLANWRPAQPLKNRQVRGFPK
T2 sequence (P00921 whole entry): as above

- Vmax app ([1]; apparent Vmax with inhibitor (0.2-0.00625 μM)): 12.33
- Vmax ([1]; enzyme Vmax without inhibitor): 79.36 (μM/L/min)^−1
- Ki ([1]; from secondary replots / Dixon plot, read-out: Ki): 46 nM
- IC50 [2]: 60 ± 1 nM
- IC50 [3]: 100 ± 40 nM
Compound: NS(=O)(=O)c1ccc(NC(=S)NC(=O)c2ccc(Cl)cc2Cl)cc1 [Compound 19, 2,4-Dichloro-N-(4-sulfamoylphenylcarbamothioyl)benzamide]
- IC50 at 48 h (MTT cytotoxicity assay): > 30000 nM

Source: patent US20170073306A1, “POTENT INHIBITORS OF HUMAN CARBONIC ANHYDRASE II AND BOVINE CARBONIC ANHYDRASE II AND THEIR MECHANISM OF ACTION” (priority 2015, published 2017)
